# Results published in patent publication US11000033B2, “Ketone or oxime compound, and herbicide” (NISSAN CHEMICAL CORPORATION, priority 2014, dated 2021).
# Tests used:
# Assay type in all cases: in vivo
# Stellaria media [1] = experiment: Test Example 5: herbicidal effect by foliage application, plastic box (symbol P); details: 320 g/ha, 3 weeks after application
# In short: (§1)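 Effect is rated 3 weeks after a foliar spray of water-diluted emulsion concentrate at a predetermined herbicide amount. Plants had grown 14 days in a 25° C. to 30° C. greenhouse from seed in sterilized diluvial soil.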
# Setaria viridis [2] = experiment: Test Example 5: herbicidal effect by foliage application, plastic box (symbol G); details: 320 g/ha, 3 weeks after application
# In short: as §1
# beet = experiment: Test Example 5: effect on crop by foliage application, plastic box (symbol f); details: 320 g/ha, 3 weeks after application
# In short: (§2)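 Greenhouse test at 25° C. to 30° C. Seeds of crops and weeds were spot-sown in boxes of sterilized diluvial soil under roughly 1.5 cm soil cover, then grown for foliage treatment.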
# Setaria viridis [3] = experiment: Test Example 4: herbicidal effect by soil treatment (symbol G)
# In short: (§3)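 Seeds were sown in sterilized diluvial soil, covered with about 1.5 cm of soil, and the soil surface was sprayed with a water-diluted emulsion of the compound at a predetermined rate. Plants grew in a greenhouse at 25° C. to 30° C.; effects were scored visually 3 weeks after application.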
# wheat [4] = experiment: Test Example 5: effect on crop by foliage application, plastic box (symbol e); details: 320 g/ha, 3 weeks after application
# In short: as §2
# transplanted rice plant = experiment: Test Example 1: effect on crop, application before weed generation in submerged conditions (symbol a); details: application herbicide amount 320 g/ha
# In short: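 Alluvial soil pots flooded to 4 cm water, sown with Echinochloa oryzacola, Scirpus juncoides and Monochoria vaginalis, then transplanted with 2.5 leaf stage rice seedlings; pre-emergence application. Greenhouse 25° C. to 30° C.; scored 0–5 by herbicidal ratio 3 weeks after application.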
# Avena fatua = experiment: Test Example 5: herbicidal effect by foliage application, plastic box (symbol I); details: 320 g/ha, 3 weeks after application
# In short: as §1
# wheat [5] = experiment: Test Example 4: effect on crop by soil treatment (symbol e); details: for e: wheat, effect grade on crop: 320 g/ha; for e: wheat, effect on crop grade: application herbicide amount 320 g/ha
# In short: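 Grown at 25° C. to 30° C. in a greenhouse, the crops came from seed sown spot-wise in sterilized diluvial soil under roughly 1.5 cm of covering soil.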
# [6] = system: Echinochloa crus-galli var. crus-galli; experiment: Test Example 3: herbicidal effect by foliage application, Wagner pot (symbol H); details: application herbicide amount 320 g/ha
# In short: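 Foliar spray of a water-diluted emulsion at a predetermined herbicide amount, applied to 14-day-old plants. Seedlings were raised in flooded alluvial soil (0.1–0.5 cm water) at 25–30 °C in a greenhouse. Injury was rated after 3 weeks against fixed criteria.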
# Lolium multiflorum Lam. = experiment: Test Example 4: herbicidal effect by soil treatment (symbol K)
# In short: as §3
# Amaranthus retroflexus [7] = experiment: Test Example 4: herbicidal effect by soil treatment (symbol N)
# In short: as §3
# Stellaria media [8] = experiment: Test Example 4: herbicidal effect by soil treatment (symbol P)
# In short: as §3
# Amaranthus retroflexus [9] = experiment: Test Example 5: herbicidal effect by foliage application, plastic box (symbol N); details: 320 g/ha, 3 weeks after application
# In short: as §1
# [10] = system: Echinochloa oryzacola Vasing.; experiment: Test Example 1: herbicidal activity, application before weed generation in submerged conditions (symbol A); details: application herbicide amount 320 g/ha
# In short: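 Flooded alluvial soil (4 cm water) was mixed-sown with the three weed species, and 2.5-leaf rice seedlings were transplanted. On sowing day, a water-diluted emulsion at a predetermined rate was applied to the water surface. After 3 weeks in a 25–30 °C greenhouse, effect was scored 0–5.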
# Abutilon theophrasti = experiment: Test Example 5: herbicidal effect by foliage application, plastic box (symbol M); details: 320 g/ha, 3 weeks after application
# In short: as §1
# [11] = application herbicide amount 320 g/ha
SMILES,"P: Stellaria media, herbicidal effect grade (Stellaria media [1])","G: Setaria viridis, herbicidal effect grade (Setaria viridis [2])","f: beet, effect on crop grade (beet)","G: Setaria viridis, herbicidal effect grade (Setaria viridis [3]; 320 g/ha)","e: wheat, effect on crop grade (wheat [4])","Effect grade on crop, a: transplanted rice plant (transplanted rice plant)","I: Avena fatua, herbicidal effect grade (Avena fatua)","e: wheat, effect grade on crop (wheat [5])","herbicidal effect on H (Echinochloa crus-galli var. crus-galli), grade 0-5 [6]","K: Lolium multiflorum Lam., herbicidal effect grade (Lolium multiflorum Lam.; 320 g/ha)","N: Amaranthus retroflexus, herbicidal effect grade (Amaranthus retroflexus [7]; 320 g/ha)","P: Stellaria media, herbicidal effect grade (Stellaria media [8]; 320 g/ha)","N: Amaranthus retroflexus, herbicidal effect grade (Amaranthus retroflexus [9])","Herbicidal effect grade, A: Echinochloa oryzacola Vasing. [10]","M: Abutilon theophrasti, herbicidal effect grade (Abutilon theophrasti)","G: Setaria viridis, herbicidal effect grade (Setaria viridis [3]; [11])","e: wheat, effect on crop grade (wheat [5])","K: Lolium multiflorum Lam., herbicidal effect grade (Lolium multiflorum Lam.; [11])","N: Amaranthus retroflexus, herbicidal effect grade (Amaranthus retroflexus [7]; [11])","P: Stellaria media, herbicidal effect grade (Stellaria media [8]; [11])"
CON=C(C)CC1CC(OS(=O)(=O)c2ccc(C)cc2)=C(c2c(C)cc(C)cc2C)C1=O (stereo not drawn) [1-161],0 (Herbicidal ratio of 5% or lower (almost no effect)),0 (Herbicidal ratio of 5% or lower (almost no effect)),0 (Herbicidal ratio of 5% or lower (almost no effect)),0 (Herbicidal ratio of 5% or lower (almost no effect)),2 (Herbicidal ratio of 20% or higher and lower than 40%),4 (Herbicidal ratio of 70% or higher and lower than 90%),4 (Herbicidal ratio of 70% or higher and lower than 90%),3 (Herbicidal ratio of 40% or higher and lower than 70%),4 (Herbicidal ratio of 70% or higher and lower than 90%),3 (Herbicidal ratio of 40% or higher and lower than 70%),0 (Herbicidal ratio of 5% or lower (almost no effect)),0 (Herbicidal ratio of 5% or lower (almost no effect)),0 (Herbicidal ratio of 5% or lower (almost no effect)),5 (Herbicidal ratio of 90% or more (almost completely withered)),0 (Herbicidal ratio of 5% or lower (almost no effect)),–,–,–,–,–
CCOC(=O)C(C(=O)C(C)C)C1CC(O)=C(c2c(C)cc(C)cc2C)C1=O (stereo not drawn) [2-009],0 (Herbicidal ratio of 5% or lower (almost no effect)),0 (Herbicidal ratio of 5% or lower (almost no effect)),0 (Herbicidal ratio of 5% or lower (almost no effect)),–,0 (Herbicidal ratio of 5% or lower (almost no effect)),0 (Herbicidal ratio of 5% or lower (almost no effect)),0 (Herbicidal ratio of 5% or lower (almost no effect)),–,3 (Herbicidal ratio of 40% or higher and lower than 70%),–,–,–,0 (Herbicidal ratio of 5% or lower (almost no effect)),0 (Herbicidal ratio of 5% or lower (almost no effect)),0 (Herbicidal ratio of 5% or lower (almost no effect)),0 (Herbicidal ratio of 5% or lower (almost no effect)),0 (Herbicidal ratio of 5% or lower (almost no effect)),0 (Herbicidal ratio of 5% or lower (almost no effect)),0 (Herbicidal ratio of 5% or lower (almost no effect)),0 (Herbicidal ratio of 5% or lower (almost no effect))
CON=C(C)CC1CC(OC(=O)C(C)Oc2ccc(Oc3ccc(Cl)cc3Cl)cc2)=C(c2c(C)cc(C)cc2C)C1=O (stereo not drawn) [1-163],3 (Herbicidal ratio of 40% or higher and lower than 70%),5 (Herbicidal ratio of 90% or more (almost completely withered)),4 (Herbicidal ratio of 70% or higher and lower than 90%),5 (Herbicidal ratio of 90% or more (almost completely withered)),5 (Herbicidal ratio of 90% or more (almost completely withered)),5 (Herbicidal ratio of 90% or more (almost completely withered)),5 (Herbicidal ratio of 90% or more (almost completely withered)),0 (Herbicidal ratio of 5% or lower (almost no effect)),5 (Herbicidal ratio of 90% or more (almost completely withered)),5 (Herbicidal ratio of 90% or more (almost completely withered)),4 (Herbicidal ratio of 70% or higher and lower than 90%),0 (Herbicidal ratio of 5% or lower (almost no effect)),3 (Herbicidal ratio of 40% or higher and lower than 70%),5 (Herbicidal ratio of 90% or more (almost completely withered)),4 (Herbicidal ratio of 70% or higher and lower than 90%),–,–,–,–,–
CCOC(=O)C(CC)(C(C)=O)C1CC(O)=C(c2c(C)cc(C)cc2C)C1=O (stereo not drawn) [2-012],0 (Herbicidal ratio of 5% or lower (almost no effect)),0 (Herbicidal ratio of 5% or lower (almost no effect)),0 (Herbicidal ratio of 5% or lower (almost no effect)),–,0 (Herbicidal ratio of 5% or lower (almost no effect)),0 (Herbicidal ratio of 5% or lower (almost no effect)),0 (Herbicidal ratio of 5% or lower (almost no effect)),–,0 (Herbicidal ratio of 5% or lower (almost no effect)),–,–,–,0 (Herbicidal ratio of 5% or lower (almost no effect)),0 (Herbicidal ratio of 5% or lower (almost no effect)),0 (Herbicidal ratio of 5% or lower (almost no effect)),0 (Herbicidal ratio of 5% or lower (almost no effect)),0 (Herbicidal ratio of 5% or lower (almost no effect)),0 (Herbicidal ratio of 5% or lower (almost no effect)),0 (Herbicidal ratio of 5% or lower (almost no effect)),0 (Herbicidal ratio of 5% or lower (almost no effect))
CON=C(C)CC1CC(O)=C(c2c(C)cc(OCC(F)(F)F)cc2C)C1=O (stereo not drawn) [6-049],5 (Herbicidal ratio of 90% or more (almost completely withered)),5 (Herbicidal ratio of 90% or more (almost completely withered)),4 (Herbicidal ratio of 70% or higher and lower than 90%),–,5 (Herbicidal ratio of 90% or more (almost completely withered)),5 (Herbicidal ratio of 90% or more (almost completely withered)),0 (Herbicidal ratio of 5% or lower (almost no effect)),–,5 (Herbicidal ratio of 90% or more (almost completely withered)),–,–,–,4 (Herbicidal ratio of 70% or higher and lower than 90%),5 (Herbicidal ratio of 90% or more (almost completely withered)),3 (Herbicidal ratio of 40% or higher and lower than 70%),5 (Herbicidal ratio of 90% or more (almost completely withered)),5 (Herbicidal ratio of 90% or more (almost completely withered)),5 (Herbicidal ratio of 90% or more (almost completely withered)),4 (Herbicidal ratio of 70% or higher and lower than 90%),4 (Herbicidal ratio of 70% or higher and lower than 90%)
